# Paper PMC5218480 (PLoS ONE, 2017)
# Tested on: MV-4-11 cells
# Assay: Gene expression microarray analysis (Affymetrix PrimeView) and GSEA
# Assay type: cell-based, human
# Design: RFU PODN (11730768_x_at) / Fold change /veh PODN (11730768_x_at) / RFU LINC00158 (11744669_a_at) / Fold change /veh LINC00158 (11744669_a_at) / RFU DUSP10 (11751237_a_at) / Fold change /veh DUSP10 (11751237_a_at) / RFU ID3 (11757404_x_at) / Fold change /veh ID3 (11757404_x_at) / RFU PLEKHG5 (11737974_s_at) / Fold change /veh PLEKHG5 (11737974_s_at) / RFU LRRC4B (11730491_at) / Fold change /veh LRRC4B (11730491_at) / RFU GIMAP4 (11747438_a_at) / Fold change /veh GIMAP4 (11747438_a_at) / RFU KRT8 (11758183_x_at) / Fold change /veh KRT8 (11758183_x_at) / RFU CNN1 (11734310_a_at) / Fold change /veh CNN1 (11734310_a_at) / RFU VPS37D (11726825_at) / Fold change /veh VPS37D (11726825_at) / RFU C10orf10 (11716522_x_at) / Fold change /veh C10orf10 (11716522_x_at) / RFU KIR2DL2 /// KIR2DL4 /// KIR2DL5A /// KIR2DL5B /// KIR2DS1 /// KIR2DS2 /// KIR2DS3 /// KIR2DS4 /// KIR3DL3 /// KIR3DL3 /// KIR3DS1 (11738374_at) / Fold change /veh KIR2DL2 /// KIR2DL4 /// KIR2DL5A /// KIR2DL5B /// KIR2DS1 /// KIR2DS2 /// KIR2DS3 /// KIR2DS4 /// KIR3DL3 /// KIR3DL3 /// KIR3DS1 (11738374_at) / RFU C1QL1 (11718748_at) / Fold change /veh C1QL1 (11718748_at) / RFU TMPRSS4 (11747572_a_at) / Fold change /veh TMPRSS4 (11747572_a_at) / RFU HAMP (11756126_x_at) / Fold change /veh HAMP (11756126_x_at) / RFU RNFT2 (11725882_a_at) / Fold change /veh RNFT2 (11725882_a_at) / RFU NR4A2 (11747474_a_at) / Fold change /veh NR4A2 (11747474_a_at) / RFU ABCC12 (11746883_a_at) / Fold change /veh ABCC12 (11746883_a_at) / RFU TMEM136 (11760407_x_at) / Fold change /veh TMEM136 (11760407_x_at) / RFU CLDN22 /// WWC2 (11732394_at) / Fold change /veh CLDN22 /// WWC2 (11732394_at) / RFU HLA-DPB1 (11760878_x_at) / Fold change /veh HLA-DPB1 (11760878_x_at) / RFU SPINT1 (11716480_a_at) / Fold change /veh SPINT1 (11716480_a_at) / RFU GAP43 (11754022_s_at) / Fold change /veh GAP43 (11754022_s_at) / RFU A4GNT (11735810_at) / Fold change /veh A4GNT (11735810_at) / RFU PRB3 (11715151_x_at) / Fold change /veh PRB3 (11715151_x_at) / RFU TUBB4B (11761932_at) / Fold change /veh TUBB4B (11761932_at) / RFU CAPN14 (11732068_a_at) / Fold change /veh CAPN14 (11732068_a_at) / RFU TMCC2 (11721928_a_at) / Fold change /veh TMCC2 (11721928_a_at) / RFU IRGQ (11745062_a_at) / Fold change /veh IRGQ (11745062_a_at) / RFU FAM174B (11720279_a_at) / Fold change /veh FAM174B (11720279_a_at) / RFU TMPRSS4 (11748680_a_at) / Fold change /veh TMPRSS4 (11748680_a_at) / RFU FAM212B (11763350_a_at) / Fold change /veh FAM212B (11763350_a_at) / RFU PLEKHG5 (11743358_a_at) / Fold change /veh PLEKHG5 (11743358_a_at) / RFU ZSCAN30 (11745921_a_at) / Fold change /veh ZSCAN30 (11745921_a_at) / RFU CMKLR1 (11741424_a_at) / Fold change /veh CMKLR1 (11741424_a_at) / RFU LOC101060620 /// MAPK8IP1 (11723275_at) / Fold change /veh LOC101060620 /// MAPK8IP1 (11723275_at) / RFU SPTSSB (11747773_x_at) / Fold change /veh SPTSSB (11747773_x_at) / RFU PRSS12 (11739890_at) / Fold change /veh PRSS12 (11739890_at) / RFU BIN1 (11741810_x_at) / Fold change /veh BIN1 (11741810_x_at) / RFU WNT11 (11732464_a_at) / Fold change /veh WNT11 (11732464_a_at) / RFU C10orf10 (11716521_a_at) / Fold change /veh C10orf10 (11716521_a_at) / RFU C5orf56 (11738089_at) / Fold change /veh C5orf56 (11738089_at) / RFU CYB561 (11721691_x_at) / Fold change /veh CYB561 (11721691_x_at) / RFU ANKRD19P (11752326_a_at) / Fold change /veh ANKRD19P (11752326_a_at) / RFU OR2T12 /// OR2T33 /// OR2T8 (11738714_s_at) / Fold change /veh OR2T12 /// OR2T33 /// OR2T8 (11738714_s_at) / RFU VCAN (11748164_a_at) / Fold change /veh VCAN (11748164_a_at) / RFU JSRP1 (11732532_at) / Fold change /veh JSRP1 (11732532_at) / RFU KRTAP10-11 (11738290_x_at) / Fold change /veh KRTAP10-11 (11738290_x_at) / RFU MYO3A (11730013_a_at) / Fold change /veh MYO3A (11730013_a_at) / RFU EBF3 (11725865_a_at) / Fold change /veh EBF3 (11725865_a_at) / RFU CAMK2N1 (11719241_x_at) / Fold change /veh CAMK2N1 (11719241_x_at) / RFU C5orf56 (11738088_a_at) / Fold change /veh C5orf56 (11738088_a_at) / RFU OLFML3 (11715873_a_at) / Fold change /veh OLFML3 (11715873_a_at) / RFU LOC100653217 /// NTM (11731650_a_at) / Fold change /veh LOC100653217 /// NTM (11731650_a_at) / RFU MAPK11 (11762145_a_at) / Fold change /veh MAPK11 (11762145_a_at) / RFU FIZ1 (11724087_x_at) / Fold change /veh FIZ1 (11724087_x_at) / RFU OASL (11726364_x_at) / Fold change /veh OASL (11726364_x_at) / RFU SOX15 (11748057_x_at) / Fold change /veh SOX15 (11748057_x_at) / RFU CD79A (11719716_a_at) / Fold change /veh CD79A (11719716_a_at) / RFU HIST1H1D (11736915_at) / Fold change /veh HIST1H1D (11736915_at) / RFU CASKIN2 (11723855_a_at) / Fold change /veh CASKIN2 (11723855_a_at) / RFU LOC730098 (11760151_x_at) / Fold change /veh LOC730098 (11760151_x_at) / RFU OR4N2 (11742367_at) / Fold change /veh OR4N2 (11742367_at) / RFU PRRT2 (11749266_a_at) / Fold change /veh PRRT2 (11749266_a_at) / RFU SNX32 (11753110_a_at) / Fold change /veh SNX32 (11753110_a_at) / RFU CDHR5 (11726645_a_at) / Fold change /veh CDHR5 (11726645_a_at) / RFU RCAN1 (11760418_a_at) / Fold change /veh RCAN1 (11760418_a_at) / RFU FAM167A (11723789_a_at) / Fold change /veh FAM167A (11723789_a_at) / RFU FAM26E (11764081_at) / Fold change /veh FAM26E (11764081_at) / RFU ISYNA1 (11749810_s_at) / Fold change /veh ISYNA1 (11749810_s_at) / RFU ACY1 (11761880_at) / Fold change /veh ACY1 (11761880_at) / RFU 11764098_at / Fold change /veh 11764098_at / RFU SAMD14 (11745864_x_at) / Fold change /veh SAMD14 (11745864_x_at) / RFU NPB (11741838_a_at) / Fold change /veh NPB (11741838_a_at) / RFU TMPRSS6 (11731388_a_at) / Fold change /veh TMPRSS6 (11731388_a_at) / RFU KRTAP10-2 (11738614_at) / Fold change /veh KRTAP10-2 (11738614_at) / RFU ARHGAP8 /// PRR5-ARHGAP8 (11727945_x_at) / Fold change /veh ARHGAP8 /// PRR5-ARHGAP8 (11727945_x_at) / RFU KRTAP5-7 /// NADSYN1 (11734609_at) / Fold change /veh KRTAP5-7 /// NADSYN1 (11734609_at) / RFU RASL12 (11751679_a_at) / Fold change /veh RASL12 (11751679_a_at) / RFU CDKN2B (11736163_a_at) / Fold change /veh CDKN2B (11736163_a_at) / RFU PRF1 (11729649_at) / Fold change /veh PRF1 (11729649_at) / RFU, ZNF638 /// ZNF638-IT1 / Fold change vs veh, ZNF638 /// ZNF638-IT1 / RFU, PANK3 / Fold change vs veh, PANK3 / RFU, SH3YL1 / Fold change vs veh, SH3YL1 / RFU, ZEB2 / Fold change vs veh, ZEB2 / RFU, NRIP1 / Fold change vs veh, NRIP1 / RFU, PTTG1IP / Fold change vs veh, PTTG1IP / RFU, CAPN2 / Fold change vs veh, CAPN2 / RFU, MED14 / Fold change vs veh, MED14 / RFU, SNORA58 / Fold change vs veh, SNORA58 / RFU, C1orf63 / Fold change vs veh, C1orf63 / RFU, LRRFIP1 / Fold change vs veh, LRRFIP1 / RFU, NDUFAF7 / Fold change vs veh, NDUFAF7 / RFU, SLC12A2 / Fold change vs veh, SLC12A2 / RFU, IBTK / Fold change vs veh, IBTK / RFU, ESF1 / Fold change vs veh, ESF1 / Fold change vs veh, TMEM50B / RFU, TAOK1 / Fold change vs veh, TAOK1 / RFU, ACBD3 / Fold change vs veh, ACBD3 / RFU, TMA16 / Fold change vs veh, TMA16 / RFU, RWDD3 / Fold change vs veh, RWDD3 / RFU, BCAT1 / Fold change vs veh, BCAT1 / RFU, EDEM3 / Fold change vs veh, EDEM3 / RFU, TMEM33 / Fold change vs veh, TMEM33 / RFU, WDR75 / Fold change vs veh, WDR75 / RFU, AHCTF1 / Fold change vs veh, AHCTF1 / RFU, TFRC / Fold change vs veh, TFRC / RFU, ZDHHC17 / Fold change vs veh, ZDHHC17 / RFU, NOM1 / Fold change vs veh, NOM1 / RFU, ARL8B / Fold change vs veh, ARL8B / RFU, ZBTB11 / Fold change vs veh, ZBTB11 / RFU, TAMM41 / Fold change vs veh, TAMM41 / RFU, KIAA1704 /// LOC100996395 / Fold change vs veh, KIAA1704 /// LOC100996395 / RFU, ING1 / Fold change vs veh, ING1 / RFU, TRMT61B / Fold change vs veh, TRMT61B / RFU, FUBP3 / Fold change vs veh, FUBP3 / RFU, TP53 / Fold change vs veh, TP53 / RFU, TNKS2 / Fold change vs veh, TNKS2 / RFU, ZFP14 / Fold change vs veh, ZFP14 / RFU, ACTR2 / Fold change vs veh, ACTR2 / RFU, PPP3R1 / Fold change vs veh, PPP3R1 / RFU, PIK3R1 / Fold change vs veh, PIK3R1 / RFU, HNRNPA1 / Fold change vs veh, HNRNPA1 / RFU, RNF170 / Fold change vs veh, RNF170 / RFU, ZNF28 / Fold change vs veh, ZNF28 / RFU, RNGTT / Fold change vs veh, RNGTT / RFU, OGT / Fold change vs veh, OGT / RFU, BRD1 / Fold change vs veh, BRD1 / RFU, MARS / Fold change vs veh, MARS / RFU, ZNF655 / Fold change vs veh, ZNF655 / RFU, FAHD1 / Fold change vs veh, FAHD1 / RFU, BDP1 / Fold change vs veh, BDP1 / RFU, LRRCC1 / Fold change vs veh, LRRCC1 / RFU, ARID1A / Fold change vs veh, ARID1A / RFU, ZNF146 / Fold change vs veh, ZNF146 / RFU, ZNF330 / Fold change vs veh, ZNF330 / RFU, GPN3 / Fold change vs veh, GPN3 / RFU, C9orf123 / Fold change vs veh, C9orf123 / RFU, N4BP2L2 / Fold change vs veh, N4BP2L2 / RFU, ARFIP1 / Fold change vs veh, ARFIP1 / RFU, FAM179B / Fold change vs veh, FAM179B / RFU, BCL10 / Fold change vs veh, BCL10 / RFU, UHRF1BP1L / Fold change vs veh, UHRF1BP1L / RFU, BET1 / Fold change vs veh, BET1 / RFU, CNOT2 / Fold change vs veh, CNOT2 / RFU, ZNF268 / Fold change vs veh, ZNF268 / Fold change vs veh, ZNF507 / RFU, DGCR2 / Fold change vs veh, DGCR2 / RFU, WDSUB1 / Fold change vs veh, WDSUB1 / Fold change vs veh, HSP90B1 /// MIR3652 / RFU, ADSS / Fold change vs veh, ADSS / RFU, GK / Fold change vs veh, GK / RFU, ZNF148 / Fold change vs veh, ZNF148 / RFU, TAF9 / Fold change vs veh, TAF9 / RFU, SLC1A5 / Fold change vs veh, SLC1A5 / RFU, SLMO2 / Fold change vs veh, SLMO2 / RFU, ABCC4 / Fold change vs veh, ABCC4 / RFU, LOC101060439 /// RAP1B / Fold change vs veh, LOC101060439 /// RAP1B / RFU, RFX7 / Fold change vs veh, RFX7 / RFU, GTPBP10 / Fold change vs veh, GTPBP10 / RFU, CNEP1R1 / Fold change vs veh, CNEP1R1 / RFU, BIVM-ERCC5 /// ERCC5 / Fold change vs veh, BIVM-ERCC5 /// ERCC5 / RFU, ILF3 / Fold change vs veh, ILF3 / RFU 11762660_at / Fold change /veh 11762660_at / RFU VCAN (11757783_s_at) / Fold change /veh VCAN (11757783_s_at) / RFU DDX43 (11728927_at) / Fold change /veh DDX43 (11728927_at) / RFU KRT8 (11758188_x_at) / Fold change /veh KRT8 (11758188_x_at) / RFU NKD1 (11759106_at) / Fold change /veh NKD1 (11759106_at) / RFU SRD5A1 (11742802_a_at) / Fold change /veh SRD5A1 (11742802_a_at) / RFU TPSAB1 /// TPSB2 (11721975_s_at) / Fold change /veh TPSAB1 /// TPSB2 (11721975_s_at) / RFU GSTM3 (11746129_a_at) / Fold change /veh GSTM3 (11746129_a_at) / RFU IL23R (11737362_x_at) / Fold change /veh IL23R (11737362_x_at) / RFU TMEM51 (11727254_a_at) / Fold change /veh TMEM51 (11727254_a_at) / RFU PIWIL2 (11732686_x_at) / Fold change /veh PIWIL2 (11732686_x_at) / RFU ORM1 (11744905_x_at) / Fold change /veh ORM1 (11744905_x_at) / RFU CCDC152 (11743942_at) / Fold change /veh CCDC152 (11743942_at) / RFU ECM1 (11717891_a_at) / Fold change /veh ECM1 (11717891_a_at) / RFU IL23R (11748794_a_at) / Fold change /veh IL23R (11748794_a_at) / RFU TNFAIP8L3 (11732012_x_at) / Fold change /veh TNFAIP8L3 (11732012_x_at) / RFU MBOAT4 (11741988_at) / Fold change /veh MBOAT4 (11741988_at) / RFU 11764193_at / Fold change /veh 11764193_at / RFU TMEM53 (11763286_at) / Fold change /veh TMEM53 (11763286_at) / RFU MAGEB2 (11727129_at) / Fold change /veh MAGEB2 (11727129_at) / RFU TMEM200A (11744735_a_at) / Fold change /veh TMEM200A (11744735_a_at) / RFU CCDC152 (11751479_a_at) / Fold change /veh CCDC152 (11751479_a_at) / RFU FAM211A (11726209_a_at) / Fold change /veh FAM211A (11726209_a_at) / RFU RGS16 (11746705_a_at) / Fold change /veh RGS16 (11746705_a_at) / RFU VCAN (11755009_s_at) / Fold change /veh VCAN (11755009_s_at) / RFU RHOB (11743442_s_at) / Fold change /veh RHOB (11743442_s_at) / RFU RGS16 (11720943_a_at) / Fold change /veh RGS16 (11720943_a_at) / RFU RGS16 (11720944_at) / Fold change /veh RGS16 (11720944_at) / RFU, VPS4B / Fold change vs veh, VPS4B / RFU, CREB1 / Fold change vs veh, CREB1 / RFU, DNAJC13 / Fold change vs veh, DNAJC13 / RFU, GNAQ / Fold change vs veh, GNAQ / RFU, CDK5R1 / Fold change vs veh, CDK5R1 / RFU, ZRANB3 / Fold change vs veh, ZRANB3 / RFU, CUL4A / Fold change vs veh, CUL4A / RFU, CCNY / Fold change vs veh, CCNY / RFU, UFL1 / Fold change vs veh, UFL1 / RFU, COG3 / Fold change vs veh, COG3 / RFU, DIAPH2 / Fold change vs veh, DIAPH2 / RFU, SKA2 / Fold change vs veh, SKA2 / RFU, AFF3 / Fold change vs veh, AFF3 / RFU, LMF1 / Fold change vs veh, LMF1 / RFU, IPO11 / Fold change vs veh, IPO11 / RFU, DFFB / Fold change vs veh, DFFB / RFU, FOXP1 / Fold change vs veh, FOXP1 / RFU, CARD8 / Fold change vs veh, CARD8 / RFU, STRN3 / Fold change vs veh, STRN3 / RFU, ADK / Fold change vs veh, ADK / RFU, RASSF2 / Fold change vs veh, RASSF2 / RFU, WIPF1 / Fold change vs veh, WIPF1 / RFU, LARP1B / Fold change vs veh, LARP1B / RFU, RASA1 / Fold change vs veh, RASA1 / RFU, RB1 / Fold change vs veh, RB1 / RFU, PPFIA1 / Fold change vs veh, PPFIA1 / RFU, MAT2A / Fold change vs veh, MAT2A / RFU, CCT5 / Fold change vs veh, CCT5 / RFU, WDR92 / Fold change vs veh, WDR92 / RFU, CUX1 / Fold change vs veh, CUX1 / RFU, TTC7A / Fold change vs veh, TTC7A / RFU, TMEM135 / Fold change vs veh, TMEM135 / RFU, DEPTOR / Fold change vs veh, DEPTOR / RFU, CPM / Fold change vs veh, CPM / RFU, DNAJB6 / Fold change vs veh, DNAJB6 / RFU, CACNA2D3 / Fold change vs veh, CACNA2D3 / RFU, DTX4 / Fold change vs veh, DTX4 / RFU, TFCP2 / Fold change vs veh, TFCP2 / RFU, GMCL1 /// GMCL1P1 / Fold change vs veh, GMCL1 /// GMCL1P1 / RFU, AEBP2 / Fold change vs veh, AEBP2 / RFU, SNHG1 /// SNORD22 /// SNORD25 /// SNORD26 /// SNORD27 /// SNORD28 /// SNORD29 /// SNORD31 / Fold change vs veh, SNHG1 /// SNORD22 /// SNORD25 /// SNORD26 /// SNORD27 /// SNORD28 /// SNORD29 /// SNORD31 / Fold change (Aza/veh), C12orf56 (ProbeSet 11735607_a_at) / Fold change (ACY-1035/veh), C12orf56 (ProbeSet 11735607_a_at) / Fold change (Aza/veh), FGFR1OP (ProbeSet 11751329_s_at) / Fold change (ACY-1035/veh), FGFR1OP (ProbeSet 11751329_s_at) / Fold change (Aza/veh), VPS36 (ProbeSet 11739960_a_at) / Fold change (ACY-1035/veh), VPS36 (ProbeSet 11739960_a_at) / RFU SYPL1 (11715823_x_at) / Fold change /veh SYPL1 (11715823_x_at) / RFU IGFBP7 (11715501_s_at) / Fold change /veh IGFBP7 (11715501_s_at) / RFU REEP3 (11722064_at) / Fold change /veh REEP3 (11722064_at) / RFU IGLL1 (11728026_x_at) / Fold change /veh IGLL1 (11728026_x_at): dose or concentration left out as unconfirmed
# Details: MV-4-11 cells, 48 hours
smiles,measurement,value
Nc1ccc(-c2cccs2)cc1NC(=O)c1ccc2c(c1)cc(C1CC1)n2CCN1CCOCC1 [ACY-1035],RFU MBOAT4 (11741988_at),8.81 RFU
